From US11111242B2, “Pyrrolo[2,3-d]pyrimidinyl, pyrrolo[2,3-b]pyrazinyl and pyrrolo[2,3-d]pyridinyl acrylamides” (Pfizer Inc., priority 2013, dated 2021)
Like-named read-outs stand apart in the source and are kept apart here.

Columns and labels:
[1] = test system: IL-15 induced STAT5 phosphorylation in Human Whole Blood (total lymphocytes); assay: HWB IL-15 Induced STAT5 Phosphorylation Assay; type: cell-based; settings: Lymphocyte, IL-15 stimulated, read-out: HWB-IL15-pSTAT5 IC50
Experimental: HWB IL-15 Induced STAT5 Phosphorylation Assay
After mixing and incubating for 45 minutes at 37° C., 5 μl D-PBS (unstimulated control) or 20× stocks of 5 μl human IL-15 (final concentration is 50 ng/ml) were added, and mixed three times. After incubating 15 minutes at 37° C., 1× Lyse/Fix Buffer (BD Phosflow 5× Lyse/Fix Buffer) was added to all wells at 1000 μl/well, then incubated for 20 minutes at 37° C. and spun 5 mins at 1200 rpm. […] Following incubating at 4° C. over night, all the samples were transferred to 96-well polypropylene U-bottom plate, and checked by flow cytometry gated on total lymphocytes.

[2] = test system: IL-15 induced P-STAT5 in human PBMC (total lymphocytes); assay: PBMC IL-15 Induced P-STAT5; type: cell-based; settings: IL-15 stimulated, read-out: PBMC IL15-pSTAT5 IC50
Summary of the method: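 Thawed human PBMC in RPMI, preincubated 30 min at 37 °C, then IL-15 stimulated. Cells methanol-permeabilized (90%, on ice 20 min) and stained for phospho-STAT5. Read by flow cytometry, gated on total lymphocytes.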

IC50 [1] [nM] | SMILES | IC50 ([2]; Homo sapiens, PBMC) [nM] | IC50 [2] [nM]
790 | C=CC(=O)N1CCC(Nc2cnc3[nH]cc(C(=O)NCC(C)(C)C)c3n2)CC1 [Example 271, 2-[(1-acryloylpiperidin-4-yl)amino]-N-(2,2-dimethylpropyl)-5H-pyrrolo[2,3-b]pyrazine-7-carboxamide] | 135 | –
818 | C=CC(=O)N1CCC(Nc2cnc3[nH]cc(C(=O)N[C@@H]4CC[C@H](F)C4)c3n2)CC1 [Example 255, 2-[(1-acryloylpiperidin-4-yl)amino]-N-[(1R,3S)-3-fluorocyclopentyl]-5H-pyrrolo[2,3-b]pyrazine-7-carboxamide] | 130 | –
364 | C=CC(=O)N1CCC(Nc2cnc3[nH]cc(C(=O)NCCCC)c3n2)CC1 [Example 269, 2-[(1-acryloylpiperidin-4-yl)amino]-N-butyl-5H-pyrrolo[2,3-b]pyrazine-7-carboxamide] | – | 47.9
259 | C=CC(=O)N1CCC(Nc2cnc3[nH]cc(C(=O)NCC(C)C)c3n2)CC1 [Example 272, 2-[(1-acryloylpiperidin-4-yl)amino]-N-(2-methylpropyl)-5H-pyrrolo[2,3-b]pyrazine-7-carboxamide] | 72.3 | –
373 | C=CC(=O)N1CCC(Nc2cnc3[nH]cc(C(=O)N[C@@H](C)CC)c3n2)CC1 [Example 285, 2-[(1-acryloylpiperidin-4-yl)amino]-N-[(2S)-butan-2-yl]-5H-pyrrolo[2,3-b]pyrazine-7-carboxamide] | – | 31.4
363 | C=CC(=O)N1CC[C@H](C)[C@@H](Nc2ncnc3[nH]ccc23)C1 [Example 11, 1-((3R,4S)-3-((7H-pyrrolo[2,3-d]pyrimidin-4-yl)amino)-4-methylpiperidin-1-yl)prop-2-en-1-one] | 97.9 | –
380 | C=CC(=O)N1C[C@H](Nc2ccnc3[nH]cc(C#N)c23)CC[C@@H]1C [Example 165, 4-{[(3R,6S)-1-Acryloyl-6-methylpiperidin-3-yl]amino}-1H-pyrrolo[2,3-b]pyridine-3-carbonitrile] | 40.6 | –
358 | C=CC(=O)N1CCC(Nc2cnc3[nH]cc(C(=O)NC(C)C4CC4)c3n2)CC1 (stereo not shown) [Example 288, 2-[(1-acryloylpiperidin-4-yl)amino]-N-(1-cyclopropylethyl)-5H-pyrrolo[2,3-b]pyrazine-7-carboxamide] | 44.4 | –
2080 | C=CC(=O)N1CCC(Nc2cnc3[nH]cc(-c4cncc(F)c4)c3n2)CC1 [Example 212, 1-(4-{[7-(5-fluoropyridin-3-yl)-5H-pyrrolo[2,3-b]pyrazin-2-yl]amino}piperidin-1-yl)prop-2-en-1-one] | – | 154
1010 | C=CC(=O)N1CCC[C@@H](Nc2ncnc3[nH]cc(C#N)c23)C1 [Example 45, 4-{[(3R)-1-acryloylpiperidin-3-yl]amino}-7H-pyrrolo[2,3-d]pyrimidine-5-carbonitrile] | – | 348
668 | C=CC(=O)N1CCC(Nc2cnc3[nH]cc(C(=O)NC4CCC(F)(F)C4)c3n2)CC1 (stereo not shown) [Example 259, 2-[(1-acryloylpiperidin-4-yl)amino]-N-(3,3-difluorocyclopentyl)-5H-pyrrolo[2,3-b]pyrazine-7-carboxamide] | – | 117
2780 | C=CC(=O)N1C[C@H](O)C[C@@H](Nc2ncnc3[nH]ccc23)C1 [Example 60, 1-((3R,5R)-3-((7H-Pyrrolo[2,3-d]pyrimidin-4-yl)amino)-5-hydroxypiperidin-1-yl)prop-2-en-1-one] | 2470 | –
392 | C=CC(=O)N1CCC[C@@H](Nc2ncnc3[nH]ccc23)C1 [Example 12, (R)-1-(3-((7H-Pyrrolo[2,3-d]pyrimidin-4-yl)amino)piperidin-1-yl)prop-2-en-1-one] | 107 | –
538 | C=CC(=O)N1C[C@@H](C)C[C@@H](Nc2ncnc3[nH]ccc23)C1 (single isomer, unassigned) [Example 14] | – | 114
6690 | C=CC(=O)N1CCC(Nc2cnc3[nH]cc(-c4ccccc4)c3n2)CC1 [Example 209, 1-{4-[(7-phenyl-5H-pyrrolo[2,3-b]pyrazin-2-yl)amino]piperidin-1-yl}prop-2-en-1-one] | – | 152
420 | C=CC(=O)N1CC[C@H](Nc2cnc3[nH]cc(C(=O)NC(C)C)c3n2)[C@H](OC)C1 [Example 317, 2-{[(3R,4S)-1-acryloyl-3-methoxypiperidin-4-yl]amino}-N-(propan-2-yl)-5H-pyrrolo[2,3-b]pyrazine-7-carboxamide] | – | 243

IC50 [1] [nM] | SMILES | IC50 ([2]; Homo sapiens, PBMC) [nM] | IC50 [2] [nM]
3400 | C=CC(=O)N1C[C@@H]2C[C@H]1CN2c1cnc2[nH]cc(C(=O)NC(C)C)c2n1 [Example 300, 2-[(1S,4S)-5-acryloyl-2,5-diazabicyclo[2.2.1]hept-2-yl]-N-(propan-2-yl)-5H-pyrrolo[2,3-b]pyrazine-7-carboxamide] | – | 714
2730 | C=CC(=O)N1CCN(c2cnc3[nH]cc(C(=O)NC(C)C)c3n2)C[C@@H]1CC(C)C [Example 303, 2-[(3S)-4-acryloyl-3-(2-methylpropyl)piperazin-1-yl]-N-(propan-2-yl)-5H-pyrrolo[2,3-b]pyrazine-7-carboxamide] | 294 | –
3480 | C=CC(=O)N1CCC(Nc2cnc3[nH]cc(-c4ccnc(C)c4)c3n2)CC1 [Example 201, 1-(4-{[7-(2-methylpyridin-4-yl)-5H-pyrrolo[2,3-b]pyrazin-2-yl]amino}piperidin-1-yl)prop-2-en-1-one] | – | 262
432 | C=CC(=O)N1CCC(Nc2cnc3[nH]cc(C(=O)NCC(C)(F)F)c3n2)CC1 [Example 282, 2-[(1-acryloylpiperidin-4-yl)amino]-N-(2,2-difluoropropyl)-5H-pyrrolo[2,3-b]pyrazine-7-carboxamide] | – | 71.7
487 | C=CC(=O)N1CCC(Nc2cnc3[nH]cc(C(=O)NC(C)(C)CC)c3n2)CC1 [Example 276, 2-[(1-acryloylpiperidin-4-yl)amino]-N-(2-methylbutan-2-yl)-5H-pyrrolo[2,3-b]pyrazine-7-carboxamide] | – | 57.8
2680 | C=CC(=O)N1CCC(Nc2cnc3[nH]cc(-c4cnc(OC)nc4)c3n2)CC1 [Example 210, 1-(4-{[7-(2-methoxypyrimidin-5-yl)-5H-pyrrolo[2,3-b]pyrazin-2-yl]amino}piperidin-1-yl)prop-2-en-1-one] | 462 | –
555 | C=CC(=O)N1C[C@H](Nc2ncnc3[nH]cc(Cl)c23)CC[C@@H]1C [Example 18, 1-((2S,5R)-5-((5-Chloro-7H-pyrrolo[2,3-d]pyrimidin-4-yl)amino)-2-methylpiperidin-1-yl)prop-2-en-1-one] | – | 31.5
442 | C=CC(=O)N1CCC(Nc2cnc3[nH]cc(C(=O)NCCCC(F)(F)F)c3n2)CC1 [Example 240, 2-[(1-acryloylpiperidin-4-yl)amino]-N-(4,4,4-trifluorobutyl)-5H-pyrrolo[2,3-b]pyrazine-7-carboxamide] | – | 83.8
502 | C=CC(=O)N1CCC(Oc2cnc3[nH]cc(C(=O)NC(C)C)c3n2)CC1 [Example 339, 2-((1-Acryloylpiperidin-4-yl)oxy)-N-isopropyl-5H-pyrrolo[2,3-b]pyrazine-7-carboxamide] | – | 80.6
819 | C=CC(=O)N1CCC[C@@H](Nc2ncnc3[nH]cc(F)c23)C1 [Example 42, 1-{(3R)-3-[(5-fluoro-7H-pyrrolo[2,3-d]pyrimidin-4-yl)amino]piperidin-1-yl}prop-2-en-1-one] | 293 | –
83.2 | C=CC(=O)N1CCC(Nc2cnc3[nH]cc(C(=O)N[C@@H](C)COC)c3n2)CC1 [Example 277, 2-[(1-acryloylpiperidin-4-yl)amino]-N-[(2S)-1-methoxypropan-2-yl]-5H-pyrrolo[2,3-b]pyrazine-7-carboxamide] | 103 | –
1310 | C=CC(=O)N1CC[C@@H](Nc2cnc3[nH]cc(C(=O)NC(C)C)c3n2)[C@@H](OC)C1 [Example 302, 2-{[(3S,4R)-1-acryloyl-3-methoxypiperidin-4-yl]amino}-N-(propan-2-yl)-5H-pyrrolo[2,3-b]pyrazine-7-carboxamide] | – | 264
1880 | C=CC(=O)N1CCC(Nc2cnc3[nH]cc(-c4cccnc4)c3n2)CC1 [Example 205, 1-(4-{[7-(pyridin-3-yl)-5H-pyrrolo[2,3-b]pyrazin-2-yl]amino}piperidin-1-yl)prop-2-en-1-one] | – | 219
400 | C=CC(=O)N1C[C@@H](F)C[C@@H](Nc2ncnc3[nH]ccc23)C1 [Example 15, 1-((3R,5S)-3-((7H-Pyrrolo[2,3-d]pyrimidin-4-yl)amino)-5-fluoropiperidin-1-yl)prop-2-en-1-one] | 128 | –
2080 | C=CC(=O)N1CCC(C)(Nc2cnc3[nH]cc(C(=O)NC(C)C)c3n2)CC1 [Example 318, 2-[(1-acryloyl-4-methylpiperidin-4-yl)amino]-N-(propan-2-yl)-5H-pyrrolo[2,3-b]pyrazine-7-carboxamide] | – | 260
386 | C=CC(=O)N1CCC(Nc2cnc3[nH]cc(C(=O)NC(C)(C)C)c3n2)CC1 [Example 266, 2-[(1-acryloylpiperidin-4-yl)amino]-N-tert-butyl-5H-pyrrolo[2,3-b]pyrazine-7-carboxamide] | – | 71
